The assay concerns NLRP3. Kind of assay: IL-1β secretion assay in PMA-differentiated, LPS/nigericin-stimulated THP-1 cells (ELISA). Format: cell-based. Particulars: 25 ng/mL LPS then nigericin, IL-1β in supernatant. On the procedure:
Compounds as provided herein were tested in the following assay. Cell culture medium employed contained RPMI 1640 medium (89%), FBS (10%), Pen/Strep (1%), and 2-mercaptoethanol (0.05 mM). Freezing medium was made up of 90% FBS and 10% DMSO. THP-1 cells were removed from the liquid nitrogen and placed into a 37° C. water bath to thaw, until signs of ice dissipated. The cells were then added to 9 mL of warm cell culture medium and centrifuged for 5 minutes at 1000 rpm. The supernatant was discarded, and the cells were resuspended in new cell culture medium. THP-1 cells were then split and cultured in the cell culture medium, being passaged every 2-3 days with the cell density will be maintained between 5×10^5 and 1.5×10^6 viable cells/mL.
PMA was dissolved in DMSO to make a stock solution at 5 mg/ml and stored in 10 μl aliquots at −20° C. for single use. PMA is added to normal growth medium. LPS was diluted with 1 mL of water solution to provide a 1 mg/mL stock solution and stored in 15 μL aliquots at −20° C. for single use. Nigericin is diluted in ice cold 100% ethanol to 5 mg/ml (6.7 mM) and stored in 75 μL aliquots at −20° C. for single use. Serum-free media contains RPMI 1640 medium (99%), Pen/Strep (1%), and 2-mercaptoethanol (0.05 mM). The two control conditions used to qualify and normalize test compound dose-response curves were as follows: High Control=25 ng/mL LPS, […], 0.5% DMSO, Low Control=25 ng/mL, LPS, 0.5% DMSO.
THP-1 cells were diluted to provide a suspension at a concentration of 1.0×10^6 cells/mL with the total volume of suspension required to enable the desired number of assay plates. The growth media was supplemented with PMA (5 ng/mL final concentration) and the cells were incubated at 37° C. under a humidified atmosphere of 5% CO2 for 40 h.
All media was carefully aspirated from each culture flask. The cells were washed carefully with 1×DPBS. The cells were then briefly digested with trypsin LE for 5 minutes at 23° C. and immediately resuspended in cell growth media. After resuspension, the cells were centrifuged at 1000 rpm for 3 minutes and the supernatant was discarded. The cells were resuspended in DPBS and once again centrifuged at 1000 rpm for 5 minutes. The supernatant was discarded and the cell pellet was resuspended in serum-free media supplemented with LPS (25 ng/mL final concentration) to enable the distribution of 30K THP-1 cells within 45 μL of media into each well of 384-well PDL-coated plates. The 384-well plates were then incubated at 37° C. under a humidified atmosphere of 5% CO2 for 2 h. Following this period, test compounds were dispensed by Tecan across the desired concentration range with all wells normalized to a final 0.5% DMSO concentration. The plates were then then incubated at 37° C. under a humidified atmosphere of 5% CO2 for 1 h. Following this period, 5 μL of the 5 mg/mL nigericin stock solution was added to each of the appropriate wells and plates were centrifuged at 1000 rpm for 30 seconds. The plates were the immediately reintroduced to the incubator at 37° C. under a humidified atmosphere of 5% CO2 for 2 h. After this time, 35 μL/well of supernatant was collected and transferred into v-bottom plate and centrifuged at 1000 rpm for 1 minute. These supernatant aliquots were analyzed using an IL-Iβ detection kit as described below. If needed, the test samples could be snap frozen and stored at −80° C. until analyzed.
To prepare each ELISA plate, capture antibody (mAb Mt175) was diluted with PBS to a final concentration of […] and then 20 μL of this solution was added to each well of the ELISA plate. Each plate was allowed to incubate overnight at 4° C. The next day, the capture antibody solution was removed and discarded. Each ELISA plate was washed 4 times with PBST followed by the addition of 25 µL/well of blocking buffer (Licor-927-40010) supplemented with 0.1% Tween 20. Each ELISA plate was then allowed to incubate for 1 hour at 23° C. […]
(In general: ELISA stands for enzyme-linked immunosorbent assay.)

Setting [1] is: Homo sapiens, THP-1, THP-1 cells, read-out: Activity (IC50 class).
Where [2] appears, read: THP-1 cells, read-out: Activity.
Setting [3] is: THP-1 cells, read-out: Activity (IC50 class).

SMILES strings stand for the structures. Read-outs that look alike come from different tables or passages of the source. Bounds are passed on as bounds.

On to `C[C@]1(O)C[C@@H](NC(=O)CN2CC(C(F)(F)F)c3cc(I)ccc3C2=O)C1` (single isomer, unassigned) [Example 10, N-(3-cis-hydroxy-3-methylcyclobutyl)-2-(6-iodo-1-oxo-4-(trifluoromethyl)-3,4-dihydroisoquinolin-2(1H)-yl)acetamide], for which the IC50 was 1 to 10 µM under setting [1] and 4.08 µM under setting [2].

As to `C[C@]1(O)C[C@@H](NC(=O)CN2CC(C(F)(F)F)c3cc(I)ccc3C2=O)C1` (single isomer, unassigned) [Example 11, N-(3-cis-hydroxy-3-methylcyclobutyl)-2-(6-iodo-1-oxo-4-(trifluoromethyl)-3,4-dihydroisoquinolin-2(1H)-yl)acetamide], the IC50 reads like this: under setting [2], 0.057 µM; under setting [3], under 1 µM.

As for `O=C(CN1C[C@@]2(C[C@@H]2F)c2c(ccc(C(F)(F)F)c2F)C1=O)Nc1ncc(Cl)cn1` (single isomer, unassigned) [Example 12, 2-[(2′s,4r)-2′,5-difluoro-1-oxo-6-(trifluoromethyl)spiro[3H-isoquinoline-4,1′-cyclopropane]-2-yl]-N-(5-chloropyrimidin-2-yl)acetamide], the IC50 is, setting by setting: under setting [1], under 1 µM; under setting [2], 0.054 µM.

On to `O=C(CN1C[C@@]2(C[C@@H]2F)c2c(ccc(C(F)(F)F)c2F)C1=O)Nc1ncc(Cl)cn1` (single isomer, unassigned) [Example 13, 2-[(2′s,4r)-2′,5-difluoro-1-oxo-6-(trifluoromethyl)spiro[3H-isoquinoline-4,1′-cyclopropane]-2-yl]-N-(5-chloropyrimidin-2-yl)acetamide], for which the IC50 runs as follows: under setting [2], 0.232 µM; under setting [3], under 1 µM.

Consider `O=C(CN1CC2(CC2(F)F)c2c(ccc(C(F)(F)F)c2F)C1=O)Nc1ncc(Cl)cn1` (single isomer, unassigned) [Example 14, N-(5-chloropyrimidin-2-yl)-2-[1′,1′,5-trifluoro-6-(trifluoromethyl)-1-oxospiro[3H-isoquinoline-4,2′-cyclopropane]-2-yl]acetamide], for which, under setting [3], the IC50 was over 10 µM.

`O=C(CN1CC2(CC2(F)F)c2c(ccc(C(F)(F)F)c2F)C1=O)Nc1ncc(Cl)cn1` (single isomer, unassigned) [Example 15, N-(5-chloropyrimidin-2-yl)-2-[1′,1′,5-trifluoro-6-(trifluoromethyl)-1-oxospiro[3H-isoquinoline-4,2′-cyclopropane]-2-yl]acetamide]: the IC50 is 0.063 µM under setting [2] and under 1 µM under setting [3].

Turning to `O=C(CN1CC2(CC2(F)F)c2cc(Br)ccc2C1=O)Nc1ncc(Cl)cn1` (single isomer, unassigned) [Example 16, N-(5-chloropyrimidin-2-yl)-2-[6-bromo-1′,1′-difluoro-1-oxospiro[3H-isoquinoline-4,2′-cyclopropane]-2-yl]acetamide], the IC50 is 1 to 10 µM under setting [1] and 1.59 µM under setting [2].

For the compound `O=C(CN1CC2(CC2(F)F)c2cc(Br)ccc2C1=O)Nc1ncc(Cl)cn1` (single isomer, unassigned) [Example 17, N-(5-chloropyrimidin-2-yl)-2-[6-bromo-1′,1′-difluoro-1-oxospiro[3H-isoquinoline-4,2′-cyclopropane]-2-yl]acetamide], the IC50 reads like this: under setting [2], 0.028 µM; under setting [3], under 1 µM.

Consider `Cc1cnc(NC(=O)CN2CC3(CC3(F)F)c3cc(Br)ccc3C2=O)nc1` (single isomer, unassigned) [Example 18, N-(5-methylpyrimidin-2-yl)-2-[6-bromo-1′,1′-difluoro-1-oxospiro[3H-isoquinoline-4,2′-cyclopropane]-2-yl]acetamide], for which the IC50 runs as follows: under setting [1], 1 to 10 µM; under setting [2], 3.48 µM.

Turning to `Cc1cnc(NC(=O)CN2CC3(CC3(F)F)c3cc(Br)ccc3C2=O)nc1` (single isomer, unassigned) [Example 19, N-(5-methylpyrimidin-2-yl)-2-[6-bromo-1′,1′-difluoro-1-oxospiro[3H-isoquinoline-4,2′-cyclopropane]-2-yl]acetamide], the IC50 runs as follows: under setting [2], 0.065 µM; under setting [3], under 1 µM.

For the compound `C[C@]1(O)C[C@@H](NC(=O)CN2CC3(CC3(F)F)c3cc(Br)ccc3C2=O)C1` (single isomer, unassigned) [Example 20, N-(3-cis-hydroxy-3-methylcyclobutyl)-2-[6-bromo-1′,1′-difluoro-1-oxospiro[3H-isoquinoline-4,2′-cyclopropane]-2-yl]acetamide], the IC50 under setting [2] was 12.9 µM and the IC50 under setting [3] is over 10 µM.

Regarding `C[C@]1(O)C[C@@H](NC(=O)CN2CC3(CC3(F)F)c3cc(Br)ccc3C2=O)C1` (single isomer, unassigned) [Example 21, N-(3-cis-hydroxy-3-methylcyclobutyl)-2-[6-bromo-1′,1′-difluoro-1-oxospiro[3H-isoquinoline-4,2′-cyclopropane]-2-yl]acetamide], the IC50 under setting [2] turned out to be 0.058 µM and the IC50 under setting [3] is under 1 µM.

Regarding `C[C@]1(O)C[C@@H](NC(=O)CN2CC3(CC3(F)F)c3cc(C4(F)CC4)ccc3C2=O)C1` (single isomer, unassigned) [Example 22, N-(3-cis-hydroxy-3-methylcyclobutyl)-2-[1′,1′-difluoro-6-(1-fluorocyclopropyl)-1-oxospiro[3H-isoquinoline-4,2′-cyclopropane]-2-yl]acetamide], the IC50 under setting [2] was 8.34 µM.

For `C[C@]1(O)C[C@@H](NC(=O)CN2CC3(CC3(F)F)c3cc(C4(F)CC4)ccc3C2=O)C1` (single isomer, unassigned) [Example 23, N-(3-cis-hydroxy-3-methylcyclobutyl)-2-[1′,1′-difluoro-6-(1-fluorocyclopropyl)-1-oxospiro[3H-isoquinoline-4,2′-cyclopropane]-2-yl]acetamide], the IC50 under setting [1] is under 1 µM and the IC50 under setting [2] worked out at 0.032 µM.

Take `Cc1cnc(NC(=O)CN2CC3(CC3(F)F)c3cc(C4(F)CC4)ccc3C2=O)nc1` (single isomer, unassigned) [Example 24, N-(5-methylpyrimidin-2-yl)-2-[1′,1′-difluoro-6-(1-fluorocyclopropyl)-1-oxospiro[3H-isoquinoline-4,2′-cyclopropane]-2-yl]acetamide]: the IC50 runs as follows: under setting [1], 1 to 10 µM; under setting [2], 6.09 µM.

`Cc1cnc(NC(=O)CN2CC3(CC3(F)F)c3cc(C4(F)CC4)ccc3C2=O)nc1` (single isomer, unassigned) [Example 25, N-(5-methylpyrimidin-2-yl)-2-[1′,1′-difluoro-6-(1-fluorocyclopropyl)-1-oxospiro[3H-isoquinoline-4,2′-cyclopropane]-2-yl]acetamide]: the IC50 by setting is: under setting [2], 0.061 µM; under setting [3], under 1 µM.

For `O=C(CN1CC2(CC2(F)F)c2cc(C3(F)CC3)ccc2C1=O)Nc1ncc(F)cn1` (single isomer, unassigned) [Example 26, N-(5-fluoropyrimidin-2-yl)-2-[1′,1′-difluoro-6-(1-fluorocyclopropyl)-1-oxospiro[3H-isoquinoline-4,2′-cyclopropane]-2-yl]acetamide], the IC50 reads like this: under setting [1], 1 to 10 µM; under setting [2], 5.88 µM.

As to `O=C(CN1CC2(CC2(F)F)c2cc(C3(F)CC3)ccc2C1=O)Nc1ncc(F)cn1` (single isomer, unassigned) [Example 27, N-(5-fluoropyrimidin-2-yl)-2-[1′,1′-difluoro-6-(1-fluorocyclopropyl)-1-oxospiro[3H-isoquinoline-4,2′-cyclopropane]-2-yl]acetamide], the IC50 by setting is: under setting [2], 0.128 µM; under setting [3], under 1 µM.
